Laboratory results taken from patent US20090048194A1, “Vagal Afferent Neurons as Targets for Treatment” (Janssen Pharmaceutica N.V., priority 2005, published 2009).

Columns and labels:
sham nodose neurons = test: Patch clamp recording of octreotide on dissociated sham nodose neurons; assay type: cell-based, Balb/c mice; settings: for effect on number of action potentials at 2× rheobase: sham nodose neurons
Description: (§1) Balb/c mice were injected intraperitoneally with the retrograde labelling agent cholera toxin B 488 3-7 days prior to experiments. Mice were then anaesthetized with ketamine/xylazine, the spinal cord removed and DRG neurons isolated (T10-T13) for electrophysiological recordings 18-24 hours after their dissociation and incubation, and mounted on the stage of an inverted microscope (Leica DMIRE2)) for both bright-field and fluorescence observation. Cholera toxin labelled neurons were identified by their green fluorescence under the N3 filter system (Leica). Whole cell currents and voltage clamp experiments were performed by using MultiClamp 7A amplifier and digitized with a DigiData 1322A converter (Axon Instruments). Stimulation and data acquisition were obtained by the pClamp 9 program (Axon Instruments). Signals were sampled at 10 kHz or 20 kHz, and low-pass filtered at 4 KHz. The series resistance was compensated. Neurons were excluded from analysis if the seal resistance or access resistance was unstable, or if they fired spontaneous action potentials.
(§2) Borosilicate glass (Harvard) was pulled with a P97 micropipette puller (Sutter, Calif.), and fire polished by a M 200 microforge (World Precision Instrument) to a tip resistance of 5-10 MΩ. A silver-silver chloride pellet (world Precision Instrument) was placed in the recording dish as the reference electrode. The normal extracellular Kreb's solution contained (in mM): NaCl 118.0, KCl 4.7, NaH2PO4 1.0, NaHCO3 25.0, MgSO4 1.2, CaCl2 2.5, D-Glucose 11.1, with pH adjusted to 7.3 by using NaOH. The normal intracellular solution contained (in mM): HEPES 10.0, KCl 130.0, MgCl2 1.0, CaCl2 1.0, EGTA 2.0, K2ATP 2, Na3GTP 0.2, titrated with KOH to pH 7.25. The extracellular solution for isolating TTX-resistance Na currents composed of (in mM): NaCl 145.0, KCl 4.8, HEPES 10.0, MgCl2 1.0, CaCl2 2.5, D-glucose 11.1, TTX 0.0003, CdCl 0.5, 4-AP 1.0, TEA-Cl 5.0, CsCl 2.0, pH adjusted to 7.3 by using NaOH, and the corresponding intracellular solution was (in mM): EPES 10.0, CsCl 130.0, MgCl2 1.0, CaCl2 1.0, EGTA 2.0, K2ATP 2.0, Na3GTP 0.2, pH adjusted to 7.25 by using CsOH. All experiments were performed at temperature of 30° C.-33° C.
(§3) Data were analyzed by using pClamp 9 software (Axon Instruments). Neurons were recorded in both current-clamp and voltage-clamp configurations. Voltage clamp recordings were used to generate current-voltage relationships for cells. Current clamp recordings were used to determine the rheobase for action potential firing of neurons. The number of action potentials elicited at 2× rheobase was subsequently assessed in current clamp mode.
(§4) Nodose neurons were dissociated and cultured in preparation for patch clamp experiments as has been described elsewhere. These nodose neurons were either obtained from Balb/c mice 21 days after infection with Nb or from sham mice, thus enabling a comparison of the effects of octreotide on both sham and Nb-infected nodose neurons.
(§5) Octreotide (1 μM) was applied to individual neurons via a fast perfusion system. Octreotide's effects were recorded on the cell's resting membrane potential (RMP) and the number of action potentials fired at 2× rheobase of each neuron.

[1] = tested on: Nb-infected nodose neurons; test: Patch clamp recording of octreotide on dissociated Nb-infected nodose neurons; assay type: cell-based, Balb/c mice; settings: for effect on number of action potentials at 2× rheobase: infected nodose neurons
Description: as §1, §2, §3, §4, §5

[2] = octreotide 1 μM, listed as octreotide

C[C@@H](O)[C@@H]1NC(=O)[C@H](CCCCN)NC(=O)[C@@H](Cc2c[nH]c3ccccc23)NC(=O)[C@H](Cc2ccccc2)NC(=O)[C@@H](NC(=O)[C@H](N)Cc2ccccc2)CSSC[C@@H](C(=O)N[C@H](CO)[C@@H](C)O)NC1=O [Octreotide, octreotide]
effect on RMP (sham nodose neurons; sham neurons, octreotide 1 μM): no significant effect | resting membrane potential (RMP) (sham nodose neurons; sham neurons, octreotide 1 μM, n=27): −54.7±2.1 mV | number of action potentials evoked at 2× rheobase (FIG. 23 example) (sham nodose neurons; sham nodose neuron, after 1 μM octreotide, control in Krebs 2): 1 action potential | effect on number of action potentials at 2× rheobase (sham nodose neurons; octreotide 1 μM): reduced the number of action potentials | effect on number of action potentials at 2× rheobase (sham nodose neurons; [2]): reduces the number of action potentials | difference between the effect of octreotide on sham and infected neurons (action potentials at 2× rheobase) ([1]; 1 μM octreotide, sham vs infected, FIG. 24): no significant difference | effect on RMP ([1]; infected neurons, octreotide 1 μM): no significant effect | resting membrane potential (RMP) ([1]; infected neurons, octreotide 1 μM, n=25): −51.7±2.1 mV | number of action potentials evoked at 2× rheobase (FIG. 23 example) ([1]; infected nodose neuron, after 1 μM octreotide, control in Krebs 9): 2 action potentials | effect on number of action potentials at 2× rheobase ([1]; octreotide 1 μM): reduced the number of action potentials | effect on number of action potentials at 2× rheobase [1, 2]: reduces the number of action potentials
